Values quoted from earlier work as cited in US8236817B2, “Polymorphs of 1-cyclopropy1-7-([s,s])-2,8-diazadicyclo[4.3.0]non-8-yl)-6-fluoro-1,4-dihydro-8-methoxy-4-oxo-3-quinoline carboxylic acid hydrochloride and methods for the preparation thereof” (Chemi S.p.A., priority 2003, dated 2012).

Conditions: solid form exposed to atmosphere; stated in U.S. Pat. No. 5,849,752

COc1c(N2C[C@@H]3CCCN[C@@H]3C2)c(F)cc2c(=O)c(C(=O)O)cn(C3CC3)c12.Cl [anhydrous form]
hygroscopicity: absorbs water from the atmosphere
